# Measurements taken from patent EP2271935B1, “METHOD AND KIT FOR THE EX VIVO EVALUATION OF THE RESPONSE OF A TUMOR TO CONDITIONS TO BE TESTED” (Universität Leipzig, priority 2008, dated 2009).
# Like-named read-outs stand apart in the source and are kept apart here.
# Tested on: epithelial cell line KB (DSMZ ACC 136)
# Assay: MTT assay of proliferation under varied riboflavin content and light exposure
# Format: cell-based, human
# From the text: To address this question, three media, a) the RPMI 1640 without riboflavin and phenol red that is used in the method according to the invention and was manufactured according to our specifications by Biochrom, as well as two different RPMI 1640 charges purchased from Invitrogen which were each containing 532 nmol/L riboflavin, b) a phenol red-free (Gibco 11835), and c) a conventional RPMI 1640 (Gibco 21875) with 13.284 µmol/L phenol red. All media were supplemented with 2 mmol/L L-alanyl-1-glutamine as stabilized glutamine source (Biochrom K0302 Lot 0755 S) and the same amount of 10% (v/v) of heat-inactivated fetal calf serum (FCS) that was purchased from Invitrogen (Lot 41Q7554K) with a yield of 198 nmol/L riboflavin. […] These medium concentrations define the riboflavin concentrations in controls (see below).
# In addition to the influences exerted by the different types of media alone, the riboflavin-dependent impact on the outcome of the docetaxel treatment was investigated. For this purpose 100 µl/well of docetaxel dilutions containing threefold the concentration indicated were added into the wells of microwell plates. The following seven docetaxel concentrations were tested: 19.38, 38.75, 77.5, 155, 310, 620, and 1,240 pmol/L.
# To examine photoactivation-dependent riboflavin-mediated effects disturbing the outcome of ex-vivo chemoresponse-evaluation by conventional cell culture medium, and in particular in the absence of flavin-protecting experimental conditions, varying amounts of riboflavin were added. A stock solution of 200 µM (-)-riboflavin (CAS 83-68-5, Sigma R9504, FW=376.37 g/mol, purity >99%, cell culture tested) in phosphate buffered saline was diluted to adjust in each case the highest final concentration in culture (this means: after completion of the assay by addition of the other two components to the final assay volume of 300 µL) to exactly 10 µmol/L. Serial log10-dilutions were made from this concentration in each corresponding medium. These gave final concentrations in cell culture of 10.000, 1.018, 0.12, and 0.03 µmol/L in the case of medium a) (the medium according to the method of the invention), and concentrations of 10.000, 1.449, 0.594, and 0.508 µmol/L using media b) and c).
# In general, each combination of riboflavin and docetaxel were tested in duplicate, and controls without additional riboflavin in quadruplicate for each experimental setting in the same 96-well plate. The experimental conditions were as follows: For each of the used media, two different plates were prepared simultaneously and either handled completely under flavin-protecting conditions (illumination only by sodium discharge lamps with an emission wavelength of 589 nm [i]), or in the same bench (Thermo MSC 12) with the installed light inside their working chamber switched on. The dilution of docetaxel and those of riboflavin in the particular medium were prepared for all four plates of each medium type prior to the other working steps under flavin-protecting conditions. Thus the administrations of these dilutions took about 20 min either under flavin-protecting conditions or illuminated conditions. After completed preparation of the plates that thereafter contained 200 µL of both diluted compounds, the plates were incubated 2 h in the incubator to allow for adjustment of the appropriate pH.
# In between the stock culture of KB was harvested by trypsination of a 3-days stock culture (exponential growth phase). Stock cultures of KB cells always were grown without any antibiotic or antimycotic in phenol red- and riboflavin-free RPMI 1640 supplemented with 10% (v/v) FCS and were adapted to this medium for more than five passages. They were always handled at room temperature or warmer and were never exposed to light other than the light of a sodium discharge lamp with an emission wavelength of 589 nm for at least five passages. […]
# [1] = medium a) (plate 01), 10 µmol/L riboflavin
smiles,measurement,setting,value
CC(=O)O[C@@]12CO[C@@H]1C[C@H](O)[C@@]1(C)C(=O)[C@H](O)C3=C(C)[C@@H](OC(=O)[C@H](O)[C@@H](NC(=O)OC(C)(C)C)c4ccccc4)C[C@@](O)([C@@H](OC(=O)c4ccccc4)[C@H]21)C3(C)C [docetaxel],IC50,"Homo sapiens, Epithelial cell, Plate No. 01; Riboflavin 10000 nmol/L; medium a), flavin-protecting conditions, read-out: IC50 for docetaxel normalized to medium control of medium with same riboflavin content",0.123 nM
same,IC50,"Homo sapiens, Epithelial cell, Plate No. 05; Riboflavin 499 nmol/L; medium b) phenol red-free RPMI 1640, flavin-protecting conditions, read-out: IC50 for docetaxel with reference to control with same riboflavin content",0.206 nM
same,IC50,"Homo sapiens, Epithelial cell, Plate No. 05; Riboflavin 499 nmol/L; medium b), flavin-protecting conditions, read-out: IC50 for docetaxel normalized to medium control of medium with same riboflavin content",0.1 nM
same,IC50,"Homo sapiens, Epithelial cell, Plate No. 05; Riboflavin 508 nmol/L; medium b) phenol red-free RPMI 1640, flavin-protecting conditions, read-out: IC50 for docetaxel with reference to control with same riboflavin content",0.182 nM
same,IC50,"Homo sapiens, Epithelial cell, Plate No. 05; Riboflavin 508 nmol/L; medium b), flavin-protecting conditions, read-out: IC50 for docetaxel normalized to medium control of medium with same riboflavin content",0.088 nM
same,IC50,"Homo sapiens, Epithelial cell, Plate No. 05; Riboflavin 594 nmol/L; medium b) phenol red-free RPMI 1640, flavin-protecting conditions, read-out: IC50 for docetaxel with reference to control with same riboflavin content",0.196 nM
same,IC50,"Homo sapiens, Epithelial cell, Plate No. 05; Riboflavin 594 nmol/L; medium b), flavin-protecting conditions, read-out: IC50 for docetaxel normalized to medium control of medium with same riboflavin content",0.0949 nM
same,IC50,"Homo sapiens, Epithelial cell, Plate No. 05; Riboflavin 1449 nmol/L; medium b) phenol red-free RPMI 1640, flavin-protecting conditions, read-out: IC50 for docetaxel with reference to control with same riboflavin content",0.197 nM
same,IC50,"Homo sapiens, Epithelial cell, Plate No. 05; Riboflavin 1449 nmol/L; medium b), flavin-protecting conditions, read-out: IC50 for docetaxel normalized to medium control of medium with same riboflavin content",0.0954 nM
same,IC50,"Homo sapiens, Epithelial cell, Plate No. 05; Riboflavin 10000 nmol/L; medium b) phenol red-free RPMI 1640, flavin-protecting conditions, read-out: IC50 for docetaxel with reference to control with same riboflavin content",0.238 nM
same,IC50,"Homo sapiens, Epithelial cell, Plate No. 05; Riboflavin 10000 nmol/L; medium b), flavin-protecting conditions, read-out: IC50 for docetaxel normalized to medium control of medium with same riboflavin content",0.115 nM
same,IC50,"Homo sapiens, Epithelial cell, Plate No. 09; Riboflavin 499 nmol/L; medium c) conventional RPMI 1640 with phenol red, flavin-protecting conditions, read-out: IC50 for docetaxel with reference to control with same riboflavin content",0.233 nM
same,IC50,"Homo sapiens, Epithelial cell, Plate No. 09; Riboflavin 499 nmol/L; medium c), flavin-protecting conditions, read-out: IC50 for docetaxel normalized to medium control of medium with same riboflavin content",0.1 nM
same,IC50,"Homo sapiens, Epithelial cell, Plate No. 09; Riboflavin 508 nmol/L; medium c) conventional RPMI 1640 with phenol red, flavin-protecting conditions, read-out: IC50 for docetaxel with reference to control with same riboflavin content",0.189 nM
same,IC50,"Homo sapiens, Epithelial cell, Plate No. 09; Riboflavin 508 nmol/L; medium c), flavin-protecting conditions, read-out: IC50 for docetaxel normalized to medium control of medium with same riboflavin content",0.0813 nM
same,IC50,"Homo sapiens, Epithelial cell, Plate No. 09; Riboflavin 594 nmol/L; medium c) conventional RPMI 1640 with phenol red, flavin-protecting conditions, read-out: IC50 for docetaxel with reference to control with same riboflavin content",0.201 nM
same,IC50,"Homo sapiens, Epithelial cell, Plate No. 09; Riboflavin 594 nmol/L; medium c), flavin-protecting conditions, read-out: IC50 for docetaxel normalized to medium control of medium with same riboflavin content",0.0865 nM
same,IC50,"Homo sapiens, Epithelial cell, Plate No. 09; Riboflavin 1449 nmol/L; medium c) conventional RPMI 1640 with phenol red, flavin-protecting conditions, read-out: IC50 for docetaxel with reference to control with same riboflavin content",0.284 nM
same,IC50,"Homo sapiens, Epithelial cell, Plate No. 09; Riboflavin 1449 nmol/L; medium c), flavin-protecting conditions, read-out: IC50 for docetaxel normalized to medium control of medium with same riboflavin content",0.122 nM
same,IC50,"Homo sapiens, Epithelial cell, Plate No. 09; Riboflavin 10000 nmol/L; medium c) conventional RPMI 1640 with phenol red, flavin-protecting conditions, read-out: IC50 for docetaxel with reference to control with same riboflavin content",0.394 nM
same,IC50,"Homo sapiens, Epithelial cell, Plate No. 09; Riboflavin 10000 nmol/L; medium c), flavin-protecting conditions, read-out: IC50 for docetaxel normalized to medium control of medium with same riboflavin content",0.169 nM
same,IC50,"Homo sapiens, Epithelial cell, medium a) (plate 01), 10 µmol/L riboflavin, flavin-protecting conditions, read-out: IC50 relating to medium control",0.224 nM
same,IC50,"Homo sapiens, Epithelial cell, medium a) (plate 01), 10 µmol/L riboflavin, flavin-protecting conditions, read-out: IC50 with reference to individual control",0.257 nM
same,IC50,"Homo sapiens, Epithelial cell, plates 01, 05, 09 handled completely under flavin-protecting conditions, three types of RPMI 1640, read-out: IC50 values for docetaxel",~0.2 nM
same,"IC50 as % of the IC50 at 20 nmol/L riboflavin, relating to medium control",[1],107%
same,"IC50 as % of the IC50 detected in a) at 20 nmol/L riboflavin, individual control",[1],128%
